Experimental data as given in PubChem BioAssay (NCI).
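Each compound was tested at five concentrations against cells in 96-well plates for 48 hours. TGI: concentration producing complete growth inhibition.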

The molecules below were run on NCI/ADR-RES ovarian (assay: NCI anticancer screen, dose series, 48 h).

Row | SMILES | TGI [µM]
1 | COc1cc(/C=C\C(=O)O)ccc1OCc1ccccc1 | > 100
2 | C=C1CC(C)(c2ccc(Nc3nc4ccccc4c4occc34)cc2)OC1=O (stereo not drawn) | 20.1
3 | CC1CC(=O)Nc2nc3ccccc3n21 (stereo not drawn) | > 100
4 | CC(C)(C)[Si](C)(C)OCC1OC(n2cnc3c(N)ncnc32)C(O[Si](C)(C)C(C)(C)C)C1O[Si](C)(C)C(C)(C)C (stereo not drawn) | > 100

These molecules were tested on HCT-116 colon (assay: NCI anticancer screen, dose series, 48 h).

Row | SMILES | TGI [µM]
5 | COc1cc(/C=C\C(=O)O)ccc1OCc1ccccc1 | > 100
6 | CC1CC(=O)Nc2nc3ccccc3n21 (stereo not drawn) | > 100
7 | CC(C)(C)[Si](C)(C)OCC1OC(n2cnc3c(N)ncnc32)C(O[Si](C)(C)C(C)(C)C)C1O[Si](C)(C)C(C)(C)C (stereo not drawn) | 22.4

What follows are molecules tested on EKVX NSCLC (assay: NCI anticancer screen, dose series, 48 h).

Row | SMILES | TGI [µM]
8 | COc1cc(/C=C\C(=O)O)ccc1OCc1ccccc1 | > 100
9 | C=C1CC(C)(c2ccc(Nc3nc4ccccc4c4occc34)cc2)OC1=O (stereo not drawn) | 24.5
10 | CC1CC(=O)Nc2nc3ccccc3n21 (stereo not drawn) | > 100
11 | CC(C)(C)[Si](C)(C)OCC1OC(n2cnc3c(N)ncnc32)C(O[Si](C)(C)C(C)(C)C)C1O[Si](C)(C)C(C)(C)C (stereo not drawn) | 64.7

Each molecule was assayed on LOX IMVI melanoma (assay: NCI anticancer screen, dose series, 48 h).

Row | SMILES | TGI [µM]
12 | COc1cc(/C=C\C(=O)O)ccc1OCc1ccccc1 | > 100
13 | CC1CC(=O)Nc2nc3ccccc3n21 (stereo not drawn) | > 100
14 | CC(C)(C)[Si](C)(C)OCC1OC(n2cnc3c(N)ncnc32)C(O[Si](C)(C)C(C)(C)C)C1O[Si](C)(C)C(C)(C)C (stereo not drawn) | 39.2

The molecules below were run on NCI-H460 lung (assay: NCI anticancer screen, dose series, 48 h).

Row | SMILES | TGI [µM]
15 | COc1cc(/C=C\C(=O)O)ccc1OCc1ccccc1 | > 100
16 | C=C1CC(C)(c2ccc(Nc3nc4ccccc4c4occc34)cc2)OC1=O (stereo not drawn) | 51.5
17 | CC1CC(=O)Nc2nc3ccccc3n21 (stereo not drawn) | > 100
18 | CC(C)(C)[Si](C)(C)OCC1OC(n2cnc3c(N)ncnc32)C(O[Si](C)(C)C(C)(C)C)C1O[Si](C)(C)C(C)(C)C (stereo not drawn) | 27.3

What follows are molecules tested on MDA-MB-435 (assay: NCI anticancer screen, dose series, 48 h).

Row | SMILES | TGI [µM]
19 | COc1cc(/C=C\C(=O)O)ccc1OCc1ccccc1 | > 100
20 | C=C1CC(C)(c2ccc(Nc3nc4ccccc4c4occc34)cc2)OC1=O (stereo not drawn) | 6.09
21 | CC1CC(=O)Nc2nc3ccccc3n21 (stereo not drawn) | > 100

Each molecule was assayed on BT-549 breast (assay: NCI anticancer screen, dose series, 48 h).

Row | SMILES | TGI [µM]
22 | C=C1CC(C)(c2ccc(Nc3nc4ccccc4c4occc34)cc2)OC1=O (stereo not drawn) | 7.02
23 | CC1CC(=O)Nc2nc3ccccc3n21 (stereo not drawn) | > 100

These molecules were tested on M14 melanoma (assay: NCI anticancer screen, dose series, 48 h).

Row | SMILES | TGI [µM]
24 | COc1cc(/C=C\C(=O)O)ccc1OCc1ccccc1 | > 100
25 | C=C1CC(C)(c2ccc(Nc3nc4ccccc4c4occc34)cc2)OC1=O (stereo not drawn) | 4.73
26 | CC1CC(=O)Nc2nc3ccccc3n21 (stereo not drawn) | > 100
27 | CC(C)(C)[Si](C)(C)OCC1OC(n2cnc3c(N)ncnc32)C(O[Si](C)(C)C(C)(C)C)C1O[Si](C)(C)C(C)(C)C (stereo not drawn) | 67.4

These molecules were tested on SF-539 CNS (assay: NCI anticancer screen, dose series, 48 h).

Row | SMILES | TGI [µM]
28 | COc1cc(/C=C\C(=O)O)ccc1OCc1ccccc1 | > 100
29 | C=C1CC(C)(c2ccc(Nc3nc4ccccc4c4occc34)cc2)OC1=O (stereo not drawn) | 4.5
30 | CC1CC(=O)Nc2nc3ccccc3n21 (stereo not drawn) | > 100

Each molecule was assayed on SK-MEL-28 melanoma (assay: NCI anticancer screen, dose series, 48 h).

Row | SMILES | TGI [µM]
31 | COc1cc(/C=C\C(=O)O)ccc1OCc1ccccc1 | > 100
32 | C=C1CC(C)(c2ccc(Nc3nc4ccccc4c4occc34)cc2)OC1=O (stereo not drawn) | 27.4

The molecules below were run on SW-620 colon (assay: NCI anticancer screen, dose series, 48 h).

Row | SMILES | TGI [µM]
33 | COc1cc(/C=C\C(=O)O)ccc1OCc1ccccc1 | > 100
34 | CC1CC(=O)Nc2nc3ccccc3n21 (stereo not drawn) | > 100
35 | CC(C)(C)[Si](C)(C)OCC1OC(n2cnc3c(N)ncnc32)C(O[Si](C)(C)C(C)(C)C)C1O[Si](C)(C)C(C)(C)C (stereo not drawn) | > 100

The molecules below were run on PC-3 prostate (assay: NCI anticancer screen, dose series, 48 h).

Row | SMILES | TGI [µM]
36 | COc1cc(/C=C\C(=O)O)ccc1OCc1ccccc1 | > 100
37 | C=C1CC(C)(c2ccc(Nc3nc4ccccc4c4occc34)cc2)OC1=O (stereo not drawn) | 20
38 | CC1CC(=O)Nc2nc3ccccc3n21 (stereo not drawn) | > 100
39 | CC(C)(C)[Si](C)(C)OCC1OC(n2cnc3c(N)ncnc32)C(O[Si](C)(C)C(C)(C)C)C1O[Si](C)(C)C(C)(C)C (stereo not drawn) | 30

The molecules below were run on SF-295 CNS (assay: NCI anticancer screen, dose series, 48 h).

Row | SMILES | TGI [µM]
40 | COc1cc(/C=C\C(=O)O)ccc1OCc1ccccc1 | > 100
41 | C=C1CC(C)(c2ccc(Nc3nc4ccccc4c4occc34)cc2)OC1=O (stereo not drawn) | 27.4
42 | CC1CC(=O)Nc2nc3ccccc3n21 (stereo not drawn) | > 100
43 | CC(C)(C)[Si](C)(C)OCC1OC(n2cnc3c(N)ncnc32)C(O[Si](C)(C)C(C)(C)C)C1O[Si](C)(C)C(C)(C)C (stereo not drawn) | 62.3

What follows are molecules tested on HT29 colon (assay: NCI anticancer screen, dose series, 48 h).

Row | SMILES | TGI [µM]
44 | C=C1CC(C)(c2ccc(Nc3nc4ccccc4c4occc34)cc2)OC1=O (stereo not drawn) | 12.6
45 | CC1CC(=O)Nc2nc3ccccc3n21 (stereo not drawn) | > 100
46 | CC(C)(C)[Si](C)(C)OCC1OC(n2cnc3c(N)ncnc32)C(O[Si](C)(C)C(C)(C)C)C1O[Si](C)(C)C(C)(C)C (stereo not drawn) | > 100

What follows are molecules tested on SK-MEL-2 melanoma (assay: NCI anticancer screen, dose series, 48 h).

Row | SMILES | TGI [µM]
47 | COc1cc(/C=C\C(=O)O)ccc1OCc1ccccc1 | > 100
48 | CC1CC(=O)Nc2nc3ccccc3n21 (stereo not drawn) | > 100
